Laboratory results from BigSolDB 2.1.

## CCOc1ccccc1C(N)=O
In acetonitrile, 288.15 K
  solubility (mole fraction): 0.00524
In acetonitrile, 293.15 K
  solubility (mole fraction): 0.0075
In acetonitrile, 298.15 K
  solubility (mole fraction): 0.0101
In acetonitrile, 303.15 K
  solubility (mole fraction): 0.0132
In acetonitrile, 308.15 K
  solubility (mole fraction): 0.0176
In acetonitrile, 313.15 K
  solubility (mole fraction): 0.0231
In acetonitrile, 318.15 K
  solubility (mole fraction): 0.0302
In acetonitrile, 323.15 K
  solubility (mole fraction): 0.0398
In ethanol, 288.15 K
  solubility (mole fraction): 0.011
In ethanol, 293.15 K
  solubility (mole fraction): 0.0137
In ethanol, 298.15 K
  solubility (mole fraction): 0.0171
In ethanol, 303.15 K
  solubility (mole fraction): 0.0211
In ethanol, 308.15 K
  solubility (mole fraction): 0.0265
In ethanol, 313.15 K
  solubility (mole fraction): 0.0327
In ethanol, 318.15 K
  solubility (mole fraction): 0.0402
In ethanol, 323.15 K
  solubility (mole fraction): 0.0486
In ethyl acetate, 288.15 K
  solubility (mole fraction): 0.00336
In ethyl acetate, 293.15 K
  solubility (mole fraction): 0.00459
In ethyl acetate, 298.15 K
  solubility (mole fraction): 0.00639
In ethyl acetate, 303.15 K
  solubility (mole fraction): 0.00835
In ethyl acetate, 308.15 K
  solubility (mole fraction): 0.0112
In ethyl acetate, 313.15 K
  solubility (mole fraction): 0.0147
In ethyl acetate, 318.15 K
  solubility (mole fraction): 0.0196
In ethyl acetate, 323.15 K
  solubility (mole fraction): 0.0251
In isobutanol, 288.15 K
  solubility (mole fraction): 0.00816
In isobutanol, 293.15 K
  solubility (mole fraction): 0.00984
In isobutanol, 298.15 K
  solubility (mole fraction): 0.0126
In isobutanol, 303.15 K
  solubility (mole fraction): 0.0162
In isobutanol, 308.15 K
  solubility (mole fraction): 0.0208
In isobutanol, 313.15 K
  solubility (mole fraction): 0.0273
In isobutanol, 318.15 K
  solubility (mole fraction): 0.0354
In isobutanol, 323.15 K
  solubility (mole fraction): 0.0454
In methanol, 288.15 K
  solubility (mole fraction): 0.0154
In methanol, 293.15 K
  solubility (mole fraction): 0.018
In methanol, 298.15 K
  solubility (mole fraction): 0.0225
In methanol, 303.15 K
  solubility (mole fraction): 0.027
In methanol, 308.15 K
  solubility (mole fraction): 0.0328
In methanol, 313.15 K
  solubility (mole fraction): 0.0402
In methanol, 318.15 K
  solubility (mole fraction): 0.0492
In methanol, 323.15 K
  solubility (mole fraction): 0.0597
In n-propanol, 288.15 K
  solubility (mole fraction): 0.00832
In n-propanol, 293.15 K
  solubility (mole fraction): 0.0113
In n-propanol, 298.15 K
  solubility (mole fraction): 0.0142
In n-propanol, 303.15 K
  solubility (mole fraction): 0.0179
In n-propanol, 308.15 K
  solubility (mole fraction): 0.0227
In n-propanol, 313.15 K
  solubility (mole fraction): 0.0301
In n-propanol, 318.15 K
  solubility (mole fraction): 0.0389
In n-propanol, 323.15 K
  solubility (mole fraction): 0.0502
